Assay results published in paper PMC11094793, “Discovery of LLC0424 as a Potent and Selective in Vivo NSD2 PROTAC Degrader” (Journal of Medicinal Chemistry, 2024).

What was measured:
NSD1 = target: T1, NSD1 (Homo sapiens, UniProt Q96L73); assay: Selectivity immunoblotting in SEM cells: NSD1; format: cell-based; conditions: 2 μM, 8 h
T1 construct: endogenous in cells; host or cells: SEM
Description: (§1) We conducted a global proteomic assay using tandem mass tags (TMT) labeled mass-spectrometry to unbiasedly quantify the protein change upon LLC0424 treatment in VCaP and RPMI-8402 cells. […] We further used SEM cell line to cross-validate the selectivity of LLC0424 for NSD2 over NSD1 and NSD3 as well as CRBN neo-substrates IKZF1, IKZF3, GSPT1, and CK-1α using immunoblotting. […] When we increased the treatment time of LLC0424 in SEM cells, we observed mild decrease of GSPT1 from 12 h (SI, Figure S3F).
(§2) After treatment, the cultured cells were collected and rinsed with phosphate-buffered saline (PBS) in room temperature. The cells were treated with RIPA buffers (ThermoFisher Scientific) supplemented with Halt Protease and Phosphatase Inhibitor Cocktail (ThermoFisher Scientific). After sonication and centrifugation, the total amount of protein in the cell lysates was measured by Pierce Bovine Serum Albumin Standard Pre-Diluted Set (ThermoFisher Scientific). After mixed with LDS-sample buffer (Invitrogen) supplemented with Sample Reducing Agent (Invitrogen) and heated in 70 °C for 10 min, equal amount of protein was loaded into NuPAGE 4–12%, Bis-Tris Protein Gel (ThermoFisher Scientific) or NuPAGE 3–8%, Tris-Acetate Protein Gel (ThermoFisher Scientific), and blotted with primary antibodies. […]

[1] = tested on: CRBN neo-substrates IKZF1, IKZF3, GSPT1, and CK-1α; assay: Selectivity immunoblotting in SEM cells: CRBN neo-substrates; format: cell-based, human; conditions: 2 μM, 8 h
Description: as §1, §2

GSPT1 = target: T2, GSPT1 (Homo sapiens, UniProt P15170); assay: GSPT1 level by proteomics and immunoblotting; format: cell-based; conditions: 2 μM
T2 construct: endogenous in cells; host or cells: RPMI-8402, SEM, VCaP
Description: as §1
NSD2 is the primary methyltransferase that transfers dimethyl to H3K36 in ALL with NSD2 gain-of-function mutation. Therefore, the effects of LLC0424 on H3K36me2 was evaluated in SEM and RPMI-8402 cells. […] Meanwhile, LLC0424 treatment also led to downregulation of H3K36Me2 in RPMI-8402 cells within 24 h (Figure 6B). […] We also conducted a colony formation assay to evaluate the effect of LLC0424 on the stem cell-like property of the leukemia cells. […] As LLC0424 leads to strong degradation of both NSD2-L and NSD2-S, the phenotypic changes upon LLC0424 treatment result from complete inactivation of NSD2 activity, including adaptor-like function of NSD2-S and SET-domain dependent enzymatic function of NSD2-L. The specific contributions of NSD2 isoforms warrant future investigation. To characterize the genes affected by LLC0424 treatment, we performed global transcriptome analysis of SEM cells treated by DMSO, LLC0424, or LLC0424N. LLC0424 treatment led to significant changes in the transcriptome of SEM cells with over 326 differentially expressed genes. […] We further explored the contribution of NSD2 loss to the phenotype we observed in SEM cells. […] Still, whether and how LLC0424’s modest effect on GSPT1 contributes to the cytotoxic effects remains to be further explored. We also designed and synthesized the negative control LLC0877 bearing the warhead that is devoid of NSD2 binding (SI, Figure S5A).
as §2

SEM cells = assay: Cell viability assay (CellTiter-Glo, 7 days), SEM; format: cell-based, human; conditions: Homo sapiens, 168 h, read-out: IC50 (growth, cell viability)
Description: Cells were plated in 50 μL of the corresponding media in 96-well plates. A 2-fold dilution series of 2* concentrated LLC0424 was prepared in a medium with the highest concentration being 60 μM. Then 50 μL of the 2× compound-containing mixture was added to each well with 6 replicates for each concentration, reaching 1× concentration, with the highest concentration being 30 μM. The plate was incubated for 7 days. At the end point, the CellTiter-Glo assay (Promega) was then performed according to the manufacturer’s instruction to determine cell proliferation. The luminescence signal intensity of each well was acquired on an Infinite M1000Pro microplate reader and the data was analyzed using GraphPad Prism software (GraphPad Software).

[2] = tested on: NSD2-overexpressed SEM cells; assay: Viability of NSD2-overexpressed versus parental SEM cells; format: cell-based, human; conditions: 2 μM LLC0424, 9 days, CTG assay
Description: NSD2 is the primary methyltransferase that transfers dimethyl to H3K36 in ALL with NSD2 gain-of-function mutation. Therefore, the effects of LLC0424 on H3K36me2 was evaluated in SEM and RPMI-8402 cells. […] Meanwhile, LLC0424 treatment also led to downregulation of H3K36Me2 in RPMI-8402 cells within 24 h (Figure 6B). […] We also conducted a colony formation assay to evaluate the effect of LLC0424 on the stem cell-like property of the leukemia cells. […]
Figure S4. […] (A) SEM or RPMI-8402 cells were treated with 2 µM LLC0424, degrader 6, degrader 7, or DMSO for 9 days and quantified for cell viability by CellTiter-Glo (CTG) assay at different days. Data are reported as the mean of five independent experiments ± SD; (B) RNA sequencing of SEM cells treated with LLC0424N or DMSO; (C) Immunoblotting of NSD2, and H3 in parental and NSD2-overexpression SEM cell lines; (D) parental or NSD2 overexpression SEM cells were treated with DMSO or 2 µM LLC0424 for 9 days and quantified for cell viability by CTG assay. Data are reported as the mean of four independent experiments ± SD; (E) VCaP cells and 22RV1 cells were treated with DMSO, 2 µM LLC0424, or 2 µM LLC0424N for 18 days and quantified for cell viability by CTG assay at different days. […]

T2 sequence (P15170 whole entry): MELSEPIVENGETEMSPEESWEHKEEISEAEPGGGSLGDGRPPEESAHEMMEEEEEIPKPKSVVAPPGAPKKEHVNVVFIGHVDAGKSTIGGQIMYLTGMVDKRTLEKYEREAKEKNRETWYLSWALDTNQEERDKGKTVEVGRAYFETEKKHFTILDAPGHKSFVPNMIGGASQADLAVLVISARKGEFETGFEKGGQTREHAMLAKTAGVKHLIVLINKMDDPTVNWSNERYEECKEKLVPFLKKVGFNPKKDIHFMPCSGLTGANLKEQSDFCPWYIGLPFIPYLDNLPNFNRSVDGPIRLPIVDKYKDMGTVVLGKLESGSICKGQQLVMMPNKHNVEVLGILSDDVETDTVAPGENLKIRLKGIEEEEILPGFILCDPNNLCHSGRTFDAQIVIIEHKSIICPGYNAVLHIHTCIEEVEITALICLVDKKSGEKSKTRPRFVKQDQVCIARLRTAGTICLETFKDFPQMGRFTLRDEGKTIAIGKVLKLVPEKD
T1 sequence (Q96L73 whole entry): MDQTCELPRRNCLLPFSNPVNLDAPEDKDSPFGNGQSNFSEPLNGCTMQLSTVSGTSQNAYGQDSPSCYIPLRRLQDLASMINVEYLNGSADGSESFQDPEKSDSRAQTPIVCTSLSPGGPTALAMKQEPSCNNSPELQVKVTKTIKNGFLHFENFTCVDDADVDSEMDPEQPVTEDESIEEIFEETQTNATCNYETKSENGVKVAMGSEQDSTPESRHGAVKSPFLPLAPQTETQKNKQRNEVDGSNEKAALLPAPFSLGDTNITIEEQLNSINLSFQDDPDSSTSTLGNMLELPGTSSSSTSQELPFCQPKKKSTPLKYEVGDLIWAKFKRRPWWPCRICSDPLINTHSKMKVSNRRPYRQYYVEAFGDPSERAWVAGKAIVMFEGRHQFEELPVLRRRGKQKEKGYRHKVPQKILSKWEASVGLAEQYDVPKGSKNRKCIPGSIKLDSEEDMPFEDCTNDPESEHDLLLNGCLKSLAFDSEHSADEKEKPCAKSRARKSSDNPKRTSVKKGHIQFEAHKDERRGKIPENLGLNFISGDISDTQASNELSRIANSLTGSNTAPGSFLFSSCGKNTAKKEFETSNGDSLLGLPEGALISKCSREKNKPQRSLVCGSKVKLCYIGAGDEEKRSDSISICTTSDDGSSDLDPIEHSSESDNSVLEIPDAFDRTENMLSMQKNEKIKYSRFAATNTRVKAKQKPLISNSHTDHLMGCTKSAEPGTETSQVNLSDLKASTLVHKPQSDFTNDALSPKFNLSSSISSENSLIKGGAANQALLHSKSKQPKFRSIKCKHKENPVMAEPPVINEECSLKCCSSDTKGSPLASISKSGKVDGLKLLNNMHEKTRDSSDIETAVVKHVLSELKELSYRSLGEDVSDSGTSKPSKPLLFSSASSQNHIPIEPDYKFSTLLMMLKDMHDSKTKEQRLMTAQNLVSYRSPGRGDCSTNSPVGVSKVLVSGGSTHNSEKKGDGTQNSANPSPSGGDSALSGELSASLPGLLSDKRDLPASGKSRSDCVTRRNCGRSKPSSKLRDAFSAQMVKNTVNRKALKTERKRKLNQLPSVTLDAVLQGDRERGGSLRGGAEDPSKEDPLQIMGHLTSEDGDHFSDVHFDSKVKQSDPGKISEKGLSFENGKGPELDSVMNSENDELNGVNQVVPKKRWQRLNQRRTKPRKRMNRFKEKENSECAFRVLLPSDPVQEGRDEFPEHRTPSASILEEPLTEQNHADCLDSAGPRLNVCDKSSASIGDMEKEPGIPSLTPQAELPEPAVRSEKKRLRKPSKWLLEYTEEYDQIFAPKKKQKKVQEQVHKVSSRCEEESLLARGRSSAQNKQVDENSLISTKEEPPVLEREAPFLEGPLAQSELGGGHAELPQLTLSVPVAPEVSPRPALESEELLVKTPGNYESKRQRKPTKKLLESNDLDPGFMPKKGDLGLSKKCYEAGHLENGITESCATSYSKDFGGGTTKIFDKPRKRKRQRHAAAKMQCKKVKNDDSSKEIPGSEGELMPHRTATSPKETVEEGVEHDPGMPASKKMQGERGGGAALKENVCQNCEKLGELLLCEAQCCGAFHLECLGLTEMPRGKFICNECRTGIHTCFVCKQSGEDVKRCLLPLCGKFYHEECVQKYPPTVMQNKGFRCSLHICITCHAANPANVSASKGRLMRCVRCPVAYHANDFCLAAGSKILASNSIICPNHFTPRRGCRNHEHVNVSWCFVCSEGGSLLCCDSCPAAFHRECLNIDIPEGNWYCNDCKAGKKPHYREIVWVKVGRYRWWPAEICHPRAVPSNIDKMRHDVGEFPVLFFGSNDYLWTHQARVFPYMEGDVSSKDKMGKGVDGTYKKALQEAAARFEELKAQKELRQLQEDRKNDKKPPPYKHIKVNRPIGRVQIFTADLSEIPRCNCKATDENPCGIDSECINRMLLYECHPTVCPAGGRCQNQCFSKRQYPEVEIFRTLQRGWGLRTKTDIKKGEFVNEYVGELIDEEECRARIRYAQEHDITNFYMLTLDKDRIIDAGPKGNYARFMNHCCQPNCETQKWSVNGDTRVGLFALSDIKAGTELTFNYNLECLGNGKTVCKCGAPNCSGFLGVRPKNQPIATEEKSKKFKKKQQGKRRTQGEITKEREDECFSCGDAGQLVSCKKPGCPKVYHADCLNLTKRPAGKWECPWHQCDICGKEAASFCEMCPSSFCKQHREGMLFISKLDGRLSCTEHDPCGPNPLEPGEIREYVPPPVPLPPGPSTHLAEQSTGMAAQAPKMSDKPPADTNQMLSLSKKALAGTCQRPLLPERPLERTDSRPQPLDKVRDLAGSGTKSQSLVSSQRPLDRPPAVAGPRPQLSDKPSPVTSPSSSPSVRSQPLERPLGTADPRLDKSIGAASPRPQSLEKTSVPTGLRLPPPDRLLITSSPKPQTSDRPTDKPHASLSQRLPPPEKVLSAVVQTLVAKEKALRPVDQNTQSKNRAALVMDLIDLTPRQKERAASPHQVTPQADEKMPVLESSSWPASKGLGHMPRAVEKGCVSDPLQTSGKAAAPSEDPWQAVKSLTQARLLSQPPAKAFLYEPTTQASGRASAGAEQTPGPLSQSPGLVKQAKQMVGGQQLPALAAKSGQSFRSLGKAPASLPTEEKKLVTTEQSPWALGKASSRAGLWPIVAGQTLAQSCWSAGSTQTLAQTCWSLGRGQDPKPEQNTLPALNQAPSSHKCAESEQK

O=C1CCC(N2C(=O)c3ccc(N4CCC(NC(=O)c5ccc(NC(=O)c6ccc(CN(C(=O)c7ccc8c(c7)OCC(=O)N8)C7CC7)cc6)cc5)CC4)cc3C2=O)C(=O)N1 (stereo not shown) [compound 10l, N-Cyclopropyl-N-(4-((4-((1-(2-(2,6-dioxopiperidin-3-yl)-1,3-dioxoisoindolin-5-yl)piperidin-4-yl)carbamoyl)phenyl)carbamoyl)benzyl)-3-oxo-3,4-dihydro-2H-benzo[b][1,4]oxazine-7-carboxamide]
NSD1 protein level (NSD1): remained unchanged | CRBN neo-substrates protein level [1]: remained unchanged | GSPT1 level (GSPT1; RPMI-8402 cells, global proteomics and immunoblotting): significant decrease | GSPT1 level on longer treatment (GSPT1; SEM cells, from 12 h): mild decrease | GSPT1 degradation (GSPT1; SEM or VCaP cells, as long as 8 h): did not induce GSPT1 degradation | IC50 (SEM cells): 3.56 µM | cell viability in NSD2-overexpressed versus parental SEM cells [2]: significantly higher in NSD2-overexpressed SEM cells
